According to patent US11702443B2, “Therapeutic agents and methods” (Pop Test Oncology LLC, priority 2016, dated 2023):
Converted amounts (≈) assume the structure as drawn. “Also recorded” adds a separate entry of the source. Like-named read-outs stand apart in the source and are kept apart here.

What was measured:
[1] = test system: Human Hepatitis B Virus Subtype ayw; assay: In vitro antiviral activity versus HBV ayw replication, DNA (Southern) hybridization; type: cell-based; conditions: HepG2 2.2.15
[2] = Host cytotoxicity in HBV assay; conditions: human, HepG2 2.2.15 cells
[3] = test system: Mycobacterium tuberculosis virulent standard strain H37Rv; assay: Standard resazurin-resorufin assay versus M. tuberculosis H37Rv; type: cell-based
[4] = test system: Staphylococcus aureus infection; conditions: cited from earlier work
[5] = test system: Staphylococcus aureus ATCC 6538; conditions: cited from earlier work
[6] = test system: Staphylococcus aureus Tour; conditions: cited from earlier work
[7] = test system: Staphylococcus aureus Tour Rif-resistant; conditions: cited from earlier work
[8] = test system: Streptococcus haemolyticus = S. pyogenes C 203; conditions: Streptococcus haemolyticus C 203, cited from earlier work
[9] = test system: Diplococcus pneumoniae = Streptococcus pneumoniae U.C. 41; conditions: Diplococcus pneumoniae U.C. 41; cited from earlier work
[10] = test system: Proteus vulgaris ATCC 881; conditions: cited from earlier work
[11] = test system: Escherichia coli ATCC 10536; conditions: cited from earlier work
[12] = test system: Klebsiella pneumoniae ATCC 10031; conditions: cited from earlier work
[13] = test system: Pseudomonas aeruginosa ATCC 10145; conditions: cited from earlier work
[14] = test system: Mycobacterium tuberculosis ATCC 9360 H37Rv; conditions: cited from earlier work
[15] = cited from earlier work
[16] = in vivo; cited from earlier work
B. subtilis = assay: Agar Disk Diffusion Assay with B. subtilis; type: cell-based, Bacillus subtilis
Bacillus megaterium = assay: Activity versus Bacillus megaterium; type: cell-based
[17] = Hydrolysis in formic acid-acidified (0.05%) HPLC eluent; type: physicochemical; conditions: compared with rifampicin
Experimental: Compound stock solutions were diluted to 2 mM in DMSO and injected into an Agilent 1100 HPLC system using the following conditions for separation: Phenomenex Gemini C18 column, 3×50 mm; flow rate 0.45 ml/min; gradient 5-95% acetonitrile in water over 8 min with all solvents containing 0.05% formic acid. Detection used the following: UV detector—Agilent diode array, monitored at 214 and 254 nm; mass spectrometry detector (MSD)—Agilent MSD, electrospray ionization, positive mode.
The chromatographic separation of TPR-1 is given in FIGS. 15A to C. • There are four peaks (4.462 min, 4.951 min, 5.657 min, 6.679 min) at 214 nm and 254 nm diode array UV detection • No other significant peaks are seen • The two main peaks (4.951 min, 5.657 min) stem from the two discernible, coexisting ionic forms of the rifamycin.
[drawing 32] • In the above picture the left formula is zwitterionic, whereas the right formula is cationic. The zwitterionic form elutes at 4.951 min, since it is more polar, and the cationic form elutes at 5.657 min, since it is more lipophilic. The cationic form was integrated by IDRI as 59%. So the cationic form dominates in the formic acid-acidified (0.05%) HPLC eluent, as to be expected • The two small side peaks stem from hydrolysis of TPR-1 by the formic acid-acidified (0.05%) HPLC eluent. This is a phenomenon well-known for rifampcin (Ref. 2). […]

NF-κB = assay: NF-κB-luciferase reporter in mixed cultures of primary astrocytes and microglia; type: cell-based, mice; conditions: 1 μM, 10 μM and 100 μM, 3 hours; then Poly I:C, LPS or TNFα for 24 h
[18] = Chemical stability (atmospheric oxygen, hydrolysis, UV light)
cancer cells = assay: Cytotoxicity to cancer cells; type: cell-based
[19] = test system: Human Hepatitis B Virus Subtype ayw; assay: In vitro antiviral activity versus HBV ayw replication, RT-qPCR; type: cell-based; conditions: HepG2 2.2.15
HepG2 2.2.15 = assay: Host cytotoxicity in HBV assay; conditions: HepG2 2.2.15; rows of RT-qPCR assay
[20] = strain H37Rv, read-out: Minimal inhibitory concentration 99% (MIC99) in nmol/Liter
[21] = strain H37Rv, read-out: Minimal inhibitory concentration 99% (MIC99) in μg/ml

Compound: Nc1ccn([C@@H]2CS[C@H](CO)O2)c(=O)n1 [Lamivudine]
- EC50 [1]: 0.026 µM
- EC90 [1]: 0.116 µM
- CC50 [2]: 2190 µM

Compound: CO/N=C/c1c2c(O)c3c(O)c(C)c4c(c3c1O)C(=O)[C@@](C)(O/C=C/[C@H](OC)[C@@H](C)[C@@H](OC(C)=O)[C@H](C)[C@H](O)[C@H](C)[C@@H](O)[C@@H](C)/C=C/C=C(/C)C(=O)N2)O4 [MR-1, (2S,12Z,14E,16S,17S,18R,19R,20R,21S,22R,23S,24E)-21-(acetyloxy)-5,6,9,17,19-pentahydroxy-23-methoxy-8-[(E)-(methoxyimino)methyl]-2,4,12,16,18,20,22-heptamethyl-2,7-(epoxypentadeca[1,11,13]trienimino)naphtho[2,1-b]furan-1,11(2H)-dione]
- MIC99 [3, 20]: 106 nmol/L
- MIC99 [3, 21]: 0.08 µg/mL
- In vivo effective dose 50% (ED50) (mg/kg) in curing Staphylococcus aureus infection in mice, per os [4]: 0.53 mg/kg
- In vivo effective dose 50% (ED50) (mg/kg) in curing Staphylococcus aureus infection in mice, subcutaneous [4]: 0.87 mg/kg
- MIC (μg/ml) reference 1 (1966) [5]: 0.0005 µg/mL (≈ 0.000662 µM)
- MIC (μg/ml) reference 2 (1974) [6]: 0.002 µg/mL (≈ 0.00265 µM)
- MIC (μg/ml) reference 2 (1974) [7]: >100 µg/mL
- MIC (μg/ml) reference 1 (1966) [8]: 0.01 µg/mL (≈ 0.0132 µM)
- MIC (μg/ml) reference 2 (1974) [8]: 0.01 µg/mL (≈ 0.0132 µM)
- MIC (μg/ml) reference 2 (1974) [9]: 0.01 µg/mL (≈ 0.0132 µM)
- MIC (μg/ml) reference 1 (1966) [10]: 2 µg/mL (≈ 2.65 µM)
- MIC (μg/ml) reference 2 (1974) [10]: 2 µg/mL (≈ 2.65 µM)
- MIC (μg/ml) reference 1 (1966) [11]: 5 µg/mL (≈ 6.62 µM)
- MIC (μg/ml) reference 2 (1974) [11]: 5 µg/mL (≈ 6.62 µM)
- MIC (μg/ml) reference 1 (1966) [12]: 10 µg/mL (≈ 13.2 µM)
- MIC (μg/ml) reference 2 (1974) [12]: 10 µg/mL (≈ 13.2 µM)
- MIC (μg/ml) reference 1 (1966) [13]: 10 µg/mL (≈ 13.2 µM)
- MIC (μg/ml) reference 2 (1974) [13]: 10 µg/mL (≈ 13.2 µM)
- MIC (μg/ml) reference 1 (1966) [14]: 0.1 µg/mL (≈ 0.132 µM)
- MIC (μg/ml) reference 2 (1974) [14]: 0.05 µg/mL (≈ 0.0662 µM)
- In vivo lethal dose 50% (LD50) (mg/kg) intravenous in mice [15]: 152 mg/kg
- Oral bioavailability [16]: more orally bioavailable than OR-1

Compound: CO[C@H]1/C=C/O[C@@]2(C)Oc3c(C)c(O)c4c(O)c(c(/C=N/O)c(O)c4c3C2=O)NC(=O)/C(C)=C\C=C\[C@H](C)[C@H](O)[C@@H](C)[C@@H](O)[C@@H](C)[C@H](OC(C)=O)[C@@H]1C [OR-1, 3-Formylrifamycin SV (E)-oxime 1.2 hydrate]
- MIC99 [3, 20]: 787 nmol/L
- MIC99 [3, 21]: 0.6 µg/mL
- In vivo effective dose 50% (ED50) (mg/kg) in curing Staphylococcus aureus infection in mice, per os [4]: 5.66 mg/kg
- In vivo effective dose 50% (ED50) (mg/kg) in curing Staphylococcus aureus infection in mice, subcutaneous [4]: 2.46 mg/kg
- MIC (μg/ml) reference 1 (1966) [5]: 0.02 µg/mL
- MIC (μg/ml) reference 2 (1974) [6]: 0.02 µg/mL
- MIC (μg/ml) reference 2 (1974) [7]: >100 µg/mL
- MIC (μg/ml) reference 1 (1966) [8]: 0.01 µg/mL
- MIC (μg/ml) reference 2 (1974) [8]: 0.01 µg/mL
- MIC (μg/ml) reference 2 (1974) [9]: 0.01 µg/mL
- MIC (μg/ml) reference 1 (1966) [10]: 10 µg/mL
- MIC (μg/ml) reference 2 (1974) [10]: 10 µg/mL
- MIC (μg/ml) reference 1 (1966) [11]: 5 µg/mL
- MIC (μg/ml) reference 2 (1974) [11]: 5 µg/mL
- MIC (μg/ml) reference 1 (1966) [12]: 20 µg/mL
- MIC (μg/ml) reference 2 (1974) [12]: 20 µg/mL
- MIC (μg/ml) reference 1 (1966) [13]: 10 µg/mL
- MIC (μg/ml) reference 2 (1974) [13]: 10 µg/mL
- MIC (μg/ml) reference 1 (1966) [14]: 5 µg/mL
- MIC (μg/ml) reference 2 (1974) [14]: 5 µg/mL
- In vivo lethal dose 50% (LD50) (mg/kg) intravenous in mice [15]: 690 mg/kg
- Oral bioavailability [16]: orally bioavailable

Compound: CO[C@H]1/C=C/O[C@@]2(C)Oc3c(C)c(O)c4c(O)c(c(/C=N/N5CCN(C)CC5)c(O)c4c3C2=O)NC(=O)/C(C)=C\C=C\[C@H](C)[C@H](O)[C@@H](C)[C@@H](O)[C@@H](C)[C@H](OC(C)=O)[C@@H]1C [Rifampicin, reference compound]
- MIC99 ([3]; H37RV, read-out: Minimal inhibitory concentration 99% (MIC99) in nmol/Liter (nM)): 72.7 nmol/L
- MIC99 ([3]; H37RV, read-out: Minimal inhibitory concentration 99% (MIC99) in μg/ml): 0.06 µg/mL

Compound: CO[C@H]1/C=C/O[C@@]2(C)Oc3c(C)c(O)c4c(O)c(c(/C=N/N5CC[N+](C)(CC#C[Si](C)(C)C)CC5)c([O-])c4c3C2=O)NC(=O)/C(C)=C\C=C\[C@H](C)[C@H](O)[C@@H](C)[C@@H](O)[C@@H](C)[C@H](OC(C)=O)[C@@H]1C [TPR-1, Nω[3-(Trimethylsilyl)prop-2-yn-1-yl]rifampicinium-4-olate×¾ HBr×H2O]
- MIC99 [3, 20]: 19.8 to 39.5 nmol/L
- MIC99 [3, 21]: 0.02 to 0.04 µg/mL
- Activity versus Bacillus subtilis (B. subtilis): highly active
- zone of inhibition at 1 µg/disc (B. subtilis; Bacillus subtilis, paper disc with 1 μg, overnight at 30° C., read-out: Clearance zones (in mm)): 18.3 mm
- zone of inhibition at 10 µg/disc (B. subtilis; Bacillus subtilis, paper disc with 10 μg, overnight at 30° C., read-out: Clearance zones (in mm)): 21.1 mm
- Activity versus Bacillus megaterium (Bacillus megaterium): highly active
- Susceptibility to hydrolysis of the hydrazone imine group in acidic media [17]: more susceptible to this hydrolysis than rifampicin
- Luciferase activity (suppression of inflammation) (NF-κB): dose dependent decrease of luciferase activity
- Oxidation by atmospheric oxygen [18]: not oxidized by atmospheric oxygen; also recorded: resistant to oxidation
- Stability towards hydrolysis and UV light [18]: enhanced stability towards hydrolysis and UV light

Compound: (11,17)-17-Hydroperoxy-11-[3,4-(methylenedioxy)phenyl]-17-(1-propyn-1-yl)estra-4,9-dien-3-one-(11,17)-17-hydroxy-11-[3,4-(methylenedioxy)phenyl]-17-(1-propyn-1-yl)estra-4,9-dien-3-one (1:1) [PT157]
- Luciferase activity (suppression of inflammation) (NF-κB): dose dependent decrease of luciferase activity

Compound: Tetrakis{3-[(tricyclo[3.3.1.1^3,7]decan-1-ammonio)methyl]benzyl}ammonium pentachloride [PT162]
- Cytotoxicity to cancer cells (cancer cells): extremely cytotoxic to cancer cells

Compound: ⅓(11β,17β)-17-Hydroxy-11-[3,4-(methylenedioxy)phenyl]-17-(1-propyn-1-yl)estra-4,9-dien-3-one (PT150)×(2EZ)-2-{(11β,17β)-17-hydroxy-11-[3,4-(methylenedioxy)phenyl]-17-(1-propyn-1-yl)estra-4,9-dien-3-ylidene}hydrazinecarbothioamide [71.8% (E), 28.2% (Z)]×⅓ H2O× 7/9 acetone [PT155]
- EC50 [19]: 10.8 µM
- EC90 [19]: > 100 µM
- Luciferase activity (suppression of inflammation) (NF-κB): dose dependent decrease of luciferase activity
- Solubility in organic solvents (Solubility; ethanol, acetone, DMSO, DMF, ethyl acetate, and chloroform): very soluble
- Solubility in water (Solubility; water): not soluble in water initially
- CC50 (HepG2 2.2.15): > 100 µM
